biological target: human CXCR3A (Homo sapiens (Human), UniProt P49682); experiment: FLIPR assay; type: cell-based; settings: CHO-K1 cells expressing the human CXCR3A coupled to Galpha(16); CXCL10 agonist 20 nM; Fluo-4-AM fluorescence; mean values if determined several times
Method: The bioactivity of compounds is tested in a fluorometric imaging plate reader (FLIPR: Molecular Devices) using engineered CHO-K1 cells expressing the human CXCR3A coupled to a G protein (Galpha(16)). Cells are plated the day prior to bioassay in F12 medium supplemented with 10% FBS and G418 and hygromycin antibiotics to maintain recombinant selection. At the day of bioassay, cells are washed and dye loaded for one hour with Fluo-4-AM (Invitrogen) in Hanks Balanced Salt Solution (Invitrogen), buffered with 20 mM Hepes at pH 7.4 and sodium bicarbonate (0.015%), containing 5 mM probenecid. […] Cells are washed free of excess dye and 60 microliter of wash buffer is added. Stock solutions of test compounds are made up at a concentration of 10 mM in DMSO, and serially diluted in dilution buffer to concentrations required for inhibition dose response curves. After a 10 minute incubation period at 37° C., 10 microliters of each compound dilution are transferred from a compound plate to the plate containing the recombinant cells in the FLIPR instrument according to the manufacturer's instructions. Following basal readings, 10 microliter CXCL10 agonist at a concentration of 20 nM (from Peprotech) is added, again using the FLIPR instrument. Changes in fluorescence are monitored before and after addition of the test compounds. Emission peak values above base level after CXCL10 addition are exported after base line subtraction. The program XLfit is used to fit the data to a single site dose response curve and to calculate IC50 values.

human CXCR3A, sequence (P49682 whole entry): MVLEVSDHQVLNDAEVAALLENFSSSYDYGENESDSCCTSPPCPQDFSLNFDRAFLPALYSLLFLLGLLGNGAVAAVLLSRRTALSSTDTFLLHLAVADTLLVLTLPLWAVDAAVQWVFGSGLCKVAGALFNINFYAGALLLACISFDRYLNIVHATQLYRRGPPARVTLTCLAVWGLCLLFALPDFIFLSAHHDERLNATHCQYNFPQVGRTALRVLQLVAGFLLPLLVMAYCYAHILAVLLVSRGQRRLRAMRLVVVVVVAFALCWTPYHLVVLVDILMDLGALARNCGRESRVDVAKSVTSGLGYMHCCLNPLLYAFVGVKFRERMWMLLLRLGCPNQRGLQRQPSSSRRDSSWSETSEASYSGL

| SMILES | IC50 [µM] |
| --- | --- |
| O=C(Cn1ccc2ccc(C(F)(F)F)cc21)N1CCN(c2scnc2-c2nc3ccccc3[nH]2)CC1 [Example 54, 1-{4-[4-(1H-Benzoimidazol-2-yl)-thiazol-5-yl]-piperazin-1-yl}-2-(6-trifluoromethyl-indol-1-yl)-ethanone] | 0.112 |
| O=C(Cn1ccc2ccc(F)cc21)N1CCN(c2scnc2-c2nc3ccccc3[nH]2)CC1 [Example 56, 1-{4-[4-(1H-Benzoimidazol-2-yl)-thiazol-5-yl]-piperazin-1-yl}-2-(6-fluoro-indol-1-yl)-ethanone] | 0.004 |
| Cc1cc2ccccc2n1CC(=O)N1CCN(c2scnc2-c2nc3ccccc3[nH]2)CC1 [Example 58, 1-{4-[4-(1H-Benzoimidazol-2-yl)-thiazol-5-yl]-piperazin-1-yl}-2-(2-methyl-indol-1-yl)-ethanone] | 0.034 |
| N#Cc1cn(CC(=O)N2CCN(c3scnc3-c3nc4ccccc4[nH]3)CC2)c2ccccc12 [Example 59, 1-(2-{4-[4-(1H-Benzoimidazol-2-yl)-thiazol-5-yl]-piperazin-1-yl}-2-oxo-ethyl)-1H-indole-3-carbonitrile] | 0.004 |
| COc1cc2c(ccn2CC(=O)N2CCN(c3scnc3-c3nc4ccccc4[nH]3)CC2)cc1Cl [Example 62, 1-{4-[4-(1H-Benzoimidazol-2-yl)-thiazol-5-yl]-piperazin-1-yl}-2-(5-chloro-6-methoxy-indol-1-yl)-ethanone] | 0.006 |
| Cc1cn(CC(=O)N2CCN(c3scnc3-c3nc4ccccc4[nH]3)CC2)c2ccc(F)cc12 [Example 63, 1-{4-[4-(1H-Benzoimidazol-2-yl)-thiazol-5-yl]-piperazin-1-yl}-2-(5-fluoro-3-methyl-indol-1-yl)-ethanone] | 0.013 |
| O=C(Cn1c(C(F)(F)F)nc2ccccc21)N1CCN(c2scnc2-c2nc3ccccc3[nH]2)CC1 [Example 64, 1-{4-[4-(1H-Benzoimidazol-2-yl)-thiazol-5-yl]-piperazin-1-yl}-2-(2-trifluoromethyl-benzoimidazol-1-yl)-ethanone] | 0.111 |
| Cc1cc2cccnc2n1CC(=O)N1CCN(c2scnc2-c2nc3ccccc3[nH]2)CC1 [Example 66, 1-{4-[4-(1H-Benzoimidazol-2-yl)-thiazol-5-yl]-piperazin-1-yl}-2-(2-methyl-pyrrolo[2,3-b]pyridin-1-yl)-ethanone] | 0.031 |
| Cc1cn(CC(=O)N2CCN(c3scnc3-c3nc4ccccc4[nH]3)CC2)c2ncccc12 [Example 67, 1-{4-[4-(1H-Benzoimidazol-2-yl)-thiazol-5-yl]-piperazin-1-yl}-2-(3-methyl-pyrrolo[2,3-b]pyridin-1-yl)-ethanone] | 0.009 |
| COc1ccc2ccn(CC(=O)N3CCN(c4scnc4-c4nc5ccccc5[nH]4)CC3)c2n1 [Example 69, 1-{4-[4-(1H-Benzoimidazol-2-yl)-thiazol-5-yl]-piperazin-1-yl}-2-(6-methoxy-pyrrolo[2,3-b]pyridin-1-yl)-ethanone] | 0.069 |
| Cc1ccc2ccn(CC(=O)N3CCN(c4scnc4-c4nc5ccccc5[nH]4)CC3)c2n1 [Example 70, 1-{4-[4-(1H-Benzoimidazol-2-yl)-thiazol-5-yl]-piperazin-1-yl}-2-(6-methyl-pyrrolo[2,3-b]pyridin-1-yl)-ethanone] | 0.013 |
| Cn1c(=O)n(CC(=O)N2CCN(c3scnc3-c3nc4ccc(CO)cc4[nH]3)CC2)c2ccccc21 [Example 76, 1-(2-{4-[4-(6-Hydroxymethyl-1H-benzoimidazol-2-yl)-thiazol-5-yl]-piperazin-1-yl}-2-oxo-ethyl)-3-methyl-1,3-dihydro-benzoimidazol-2-one] | 0.01 |
| Cc1ccccc1-c1nc(-c2nc3ccccc3[nH]2)c(N2CCN(C(=O)Cn3cnc4cccnc43)[C@H](C)C2)s1 [Example 81, 1-{(R)-4-[4-(1H-Benzoimidazol-2-yl)-2-o-tolyl-thiazol-5-yl]-2-methyl-piperazin-1-yl}-2-imidazo[4,5-b]pyridin-3-yl-ethanone] | 0.023 |
| COc1ccccc1-c1nc(-c2nc3ccccc3[nH]2)c(N2CCN(C(=O)Cn3cnc4cccnc43)[C@H](C)C2)s1 [Example 82, 1-{(R)-4-[4-(1H-Benzoimidazol-2-yl)-2-(2-methoxy-phenyl)-thiazol-5-yl]-2-methyl-piperazin-1-yl}-2-imidazo[4,5-b]pyridin-3-yl-ethanone] | 0.096 |
| C[C@@H]1CN(c2scnc2-c2nc3cc(C(C)(C)C)ccc3[nH]2)CCN1C(=O)Cn1cnc2cccnc21 [Example 86, 1-{(R)-4-[4-(5-tert-Butyl-1H-benzoimidazol-2-yl)-thiazol-5-yl]-2-methyl-piperazin-1-yl}-2-imidazo[4,5-b]pyridin-3-yl-ethanone] | 0.001 |
| C[C@@H]1CN(c2scnc2-c2nc3cc(Cl)c(F)cc3[nH]2)CCN1C(=O)Cn1cnc2cccnc21 [Example 89, 1-{(R)-4-[4-(5-Chloro-6-fluoro-1H-benzoimidazol-2-yl)-thiazol-5-yl]-2-methyl-piperazin-1-yl}-2-imidazo[4,5-b]pyridin-3-yl-ethanone] | 0.001 |
| C[C@@H]1CN(c2scnc2-c2nc3c(F)c(F)ccc3[nH]2)CCN1C(=O)Cn1cnc2cccnc21 [Example 90, 1-{(R)-4-[4-(4,5-Difluoro-1H-benzoimidazol-2-yl)-thiazol-5-yl]-2-methyl-piperazin-1-yl}-2-imidazo[4,5-b]pyridin-3-yl-ethanone] | 0.002 |
| C[C@@H]1CN(c2scnc2-c2nc3cc(Cl)c(C(F)(F)F)cc3[nH]2)CCN1C(=O)Cn1cnc2cccnc21 [Example 93, 1-{(R)-4-[4-(5-Chloro-6-trifluoromethyl-1H-benzoimidazol-2-yl)-thiazol-5-yl]-2-methyl-piperazin-1-yl}-2-imidazo[4,5-b]pyridin-3-yl-ethanone] | 0.001 |
| Cc1c(Cl)ccc2[nH]c(-c3ncsc3N3CCN(C(=O)Cn4cnc5cccnc54)[C@H](C)C3)nc12 [Example 94, 1-{(R)-4-[4-(5-Chloro-4-methyl-1H-benzoimidazol-2-yl)-thiazol-5-yl]-2-methyl-piperazin-1-yl}-2-imidazo[4,5-b]pyridin-3-yl-ethanone] | 0.0005 |
| C[C@@H]1CN(c2scnc2-c2nc3c(C(F)(F)F)cccc3[nH]2)CCN1C(=O)Cn1cnc2cccnc21 [Example 95, 2-Imidazo[4,5-b]pyridin-3-yl-1-{(R)-2-methyl-4-[4-(4-trifluoromethyl-1H-benzoimidazol-2-yl)-thiazol-5-yl]-piperazin-1-yl}-ethanone] | 0.004 |
| C[C@@H]1CN(c2scnc2-c2nc3c(F)cccc3[nH]2)CCN1C(=O)Cn1cnc2cccnc21 [Example 97, 1-{(R)-4-[4-(4-Fluoro-1H-benzoimidazol-2-yl)-thiazol-5-yl]-2-methyl-piperazin-1-yl}-2-imidazo[4,5-b]pyridin-3-yl-ethanone] | 0.002 |
| C[C@@H]1CN(c2scnc2-c2nc3ccccc3n2C)CCN1C(=O)Cn1cnc2cccnc21 [Example 98, 2-Imidazo[4,5-b]pyridin-3-yl-1-{(R)-2-methyl-4-[4-(1-methyl-1H-benzoimidazol-2-yl)-thiazol-5-yl]-piperazin-1-yl}-ethanone] | 0.009 |
| Cn1c(=O)n(CC(=O)N2CCN(c3scnc3-c3nc4cc(OCCO)ccc4[nH]3)CC2)c2ccccc21 [Example 101, 1-[2-(4-{4-[5-(2-Hydroxy-ethoxy)-1H-benzoimidazol-2-yl]thiazol-5-yl}-piperazin-1-yl)-2-oxo-ethyl]-3-methyl-1,3-dihydro-benzoimidazol-2-one] | 0.014 |
| COCCOc1ccc2[nH]c(-c3ncsc3N3CCN(C(=O)Cn4c(=O)n(C)c5ccccc54)CC3)nc2c1 [Example 102, 1-[2-(4-{4-[5-(2-Methoxy-ethoxy)-1H-benzoimidazol-2-yl]-thiazol-5-yl}-piperazin-1-yl)-2-oxo-ethyl]-3-methyl-1,3-dihydro-benzoimidazol-2-one] | 0.014 |
| O=C(CN1CCCc2ccccc21)N1CCN(c2scnc2-c2nc3ccccc3[nH]2)CC1 [Example 105, 1-{4-[4-(1H-Benzoimidazol-2-yl)-thiazol-5-yl]-piperazin-1-yl}-2-(3,4-dihydro-2H-quinolin-1-yl)-ethanone] | 0.089 |
| O=C(CN1CCOc2ccccc21)N1CCN(c2scnc2-c2nc3ccccc3[nH]2)CC1 [Example 106, 1-{4-[4-(1H-Benzoimidazol-2-yl)-thiazol-5-yl]-piperazin-1-yl}-2-(2,3-dihydro-benzo[1,4]oxazin-4-yl)-ethanone] | 0.099 |
| O=C1CCN(CC(=O)N2CCN(c3scnc3-c3nc4ccccc4[nH]3)CC2)c2ccccc21 [Example 107, 1-(2-{4-[4-(1H-Benzoimidazol-2-yl)-thiazol-5-yl]-piperazin-1-yl}-2-oxo-ethyl)-2,3-dihydro-1H-quinolin-4-one] | 0.078 |
| O=C(Cn1ccc2cccc(F)c21)N1CCN(c2scnc2-c2nc3ccccc3[nH]2)CC1 [Example 108, 1-{4-[4-(1H-Benzoimidazol-2-yl)-thiazol-5-yl]-piperazin-1-yl}-2-(7-fluoro-indol-1-yl)-ethanone] | 0.004 |
| O=C(Cc1cccnc1)N1CCN(c2scnc2-c2nc3ccccc3[nH]2)CC1 [Example 110, 1-{4-[4-(1H-Benzoimidazol-2-yl)-thiazol-5-yl]-piperazin-1-yl}-2-pyridin-3-yl-ethanone] | 0.487 |
